Where two headings read alike, the source gives them in different places.
How the values were obtained:
[1] = tested on: P. falciparum 3D7 (Pf3D7), CQ sensitive; assay: SYBR Green I growth inhibition assay, asynchronous P. falciparum 3D7 culture; type: cell-based, Plasmodium falciparum; settings: for IC50: Plasmodium falciparum; for IC50 (SE) µM / IC50 (SE) µg/mL: Pf3D7, asynchronous culture
Description: Antimalarial activity of all the listed Pht analogues was initially assessed on asynchronous cultures of P. falciparum 3D7 (Pf3D7) clone using the SYBR Green assay. […] The mean IC50 values are based on three separate experiments (Table 1).
The laboratory-adapted P. falciparum strains 3D7 (Africa; CQ sensitive) and W2 (Africa; CQ resistant), were acquired from Malaria Research and Reference Reagent Resource Center (MR4) (Manassas, VA, USA) and maintained with type O +ve erythrocytes suspended in continuous complete culture medium as described. Complete culture media consisted of 10.43 g/litre of RPMI 1640-HEPES supplemented with 10% (vol/vol) human AB serum, 92.6 mg/litre L-glutamine, 50 mg/liter hypoxanthine, 2 g/litre sodium bicarbonate (Sigma-Aldrich, St. Louis, MO). Incubation of cultures was at 37 °C and maintained in a low oxygen atmosphere (5% O2, 5% CO2, 90% N). The levels of parasitemia in the cultures were maintained at between 2 and 10%, with 5% hematocrit. Media was changed after every 24 hours and parasitemia monitored every 48 hours. Synchronous cultures were prepared by sorbitol lysis. Stock solutions of the Pht, Pht analogues, and DHA were prepared in absolute dimethyl sulfoxide (DMSO) while CQ was prepared in distilled water. The prepared drug stock solutions were used immediately or stored at −80 °C for not longer than one month before use. Stock solutions were further diluted in serum free RPMI 1640 media (stock solution solvent final conc. 0.05%) before performing a 2-fold serial dilution to achieve dose ranges of 0.2 µM to 100 µM (Pht and derivatives), 7.8 to 2,000 nM (CQ) and 0.17 to 87.5 nM (DHA). 25 μL of the drug diluents were aliquoted into 96 well plates and used immediately. Alternatively, the stock solutions were diluted in distilled water, 2-fold serial dilution performed on a 96 well plate and allowed to air dry in a laminar flow hood after which dried plates were stored at 4 °C until use. SYBR Green I assay technique with additional modification was used for drug susceptibility testing of the parasites. Parasite cultures of >1% parasitemia were diluted to 1% parasitemia and 2% hematocrit and 200 μL were transferred onto drug pre-dosed plates and incubated at 37 °C for 90 hours, [40]. Drug exposure was terminated by freezing the drug plates at −80 °C for 24 hours after which lysis buffer containing (per liter) 100 mM Tris-HCl, 10 mM EDTA, 0.016% Saponin, 1.6% triton X-100 and 20X SYBR Green I dye was added and the sample incubated for 2 hours in the dark. Relative fluorescence units (RFU) were read using the Perkin Elmer Wallac 1420 fluorescence plate reader, with excitation and emission wavelengths of 485 nm and 535 nm respectively. The readouts values were aligned with corresponding drug doses and analysis performed by Graph-pad Prism software. The drug concentrations (x value) were transformed using X = Log[X] and plotted against the counts (y values) and the data analysed by non-linear regression (sigmoid dose-response/variable slope equation) to yield the IC50.

[2] = 3D7, Pf3D7, asynchronous culture, SYBR Green, mean of three experiments, NDR / No IC50 = no dose response, read-out: IC50 (SE) µM
[3] = 3D7, Pf3D7, asynchronous culture, SYBR Green, mean of three experiments, NDR / No IC50 = no dose response, read-out: IC50 (SE) µg/mL
[4] = SYBR Green, mean of three experiments, NDR / No IC50 = no dose response

Row | Structure (SMILES) | IC50 [1, 2] [µM] | IC50 [1, 3] [µg/mL] | IC50 (SE) µM [1, 4] | IC50 (SE) µg/mL [1, 4] | melting point [°C] | other results
1 | CC(C)[C@H](c1nc2ccccc2n1Cc1cn(CC(=O)O)nn1)N1C(=O)c2ccccc2C1=O [6b′] | 7.2 | 3.8 | – | – | – | –
2 | CC[C@@H](C)[C@H](c1nc2ccccc2n1Cc1c[nH]nn1)N1C(=O)c2ccccc2C1=O [Compound 6z] | – | – | No IC50 | No IC50 | – | –
3 | CCOC(=O)Cn1cc(Cn2c([C@@H](C(C)C)N3C(=O)c4ccccc4C3=O)nc3ccccc32)nn1 [6a′] | – | – | No IC50 | No IC50 | – | –
4 | CCOC(=O)Cn1cc(Cn2c([C@@H](CC(C)C)N3C(=O)c4ccccc4C3=O)nc3ccccc32)nn1 [Compound 6p] | 62 | 31 | – | – | 147 to 149 | –
5 | Cc1ccc(-n2cc(Cn3c([C@@H](CC(C)C)N4C(=O)c5ccccc5C4=O)nc4ccccc43)nn2)cc1 [Compound 6e] | 25 | 13 | – | – | – | –
6 | CC[C@@H](C)[C@H](c1nc2ccccc2n1Cc1cn(-c2ccc(OC)cc2)nn1)N1C(=O)c2ccccc2C1=O [Compound 6i] | 40 | 22.5 | – | – | 135 to 137 | –
7 | CCCCCCn1cc(Cn2c([C@@H](CC(C)C)N3C(=O)c4ccccc4C3=O)nc3ccccc32)nn1 [Compound 6t] | 28 | 14 | – | – | 146 to 148 | –
8 | CCOC(=O)Cn1cc(Cn2c([C@@H]([C@H](C)CC)N3C(=O)c4ccccc4C3=O)nc3ccccc32)nn1 [Compound 6v] | – | – | No IC50 | No IC50 | – | –
9 | CC(C)[C@H](c1nc2ccccc2n1Cc1cn(-c2ccc(Cl)cc2)nn1)N1C(=O)c2ccccc2C1=O [Compound 6l] | – | – | NDR | NDR | 182 to 184 | –
10 | CC(C)C[C@H](c1nc2ccccc2n1Cc1cn(CC(=O)O)nn1)N1C(=O)c2ccccc2C1=O [Compound 6q] | 8.4 | 4.1 | – | – | – | –
11 | COc1ccc(-n2cc(Cn3c([C@@H](C(C)C)N4C(=O)c5ccccc5C4=O)nc4ccccc43)nn2)cc1 [Compound 6n] | 9.6 | 5.5 | – | – | 125 to 127 | –
12 | CC[C@@H](C)[C@H](c1nc2ccccc2n1Cc1cn(CC(=O)O)nn1)N1C(=O)c2ccccc2C1=O [Compound 6w] | 15.6 | 11.6 | – | – | – | –
13 | CC[C@@H](C)[C@H](c1nc2ccccc2n1Cc1cn(-c2ccc(C)cc2)nn1)N1C(=O)c2ccccc2C1=O [Compound 6j] | 73 | 33.4 | – | – | 198 to 201 | –
14 | CC[C@@H](C)[C@H](c1nc2ccccc2n1Cc1cn(-c2ccc(Cl)cc2)nn1)N1C(=O)c2ccccc2C1=O [Compound 6g] | – | – | NDR | NDR | 194 to 196 | –
15 | C[C@H]1[C@@H](O)O[C@@H]2O[C@@]3(C)CC[C@H]4[C@H](C)CC[C@@H]1[C@@]24OO3 [DHA, dihydroartemisinin, reference compound] | 0.003 | 0.0017 | – | – | – | –
16 | CC(C)C[C@H](c1nc2ccccc2n1Cc1cn(-c2ccc(Cl)cc2)nn1)N1C(=O)c2ccccc2C1=O [Compound 6b] | – | – | NDR | NDR | – | –
17 | O=C1NC(=O)c2ccccc21 [I, Phthalimide, reference compound] | 5.14 | 0.8 | – | – | – | –
18 | Cc1ccc(-n2cc(Cn3c([C@@H](C(C)C)N4C(=O)c5ccccc5C4=O)nc4ccccc43)nn2)cc1 [Compound 6o] | 23.5 | 17.5 | – | – | 169 to 171 | –
19 | CC[C@@H](C)[C@H](c1nc2ccccc2n1Cc1cn(-c2ccccc2)nn1)N1C(=O)c2ccccc2C1=O [Compound 6f] | – | – | NDR | NDR | 211 to 213 | –
20 | CCCCCCn1cc(Cn2c([C@@H](C(C)C)N3C(=O)c4ccccc4C3=O)nc3ccccc32)nn1 [6e′] | 16.7 | 6.9 | – | – | – | –
21 | CC(C)[C@H](c1nc2ccccc2n1Cc1cn(C2O[C@@H](CO)C(O)[C@@H](O)[C@@H]2O)nn1)N1C(=O)c2ccccc2C1=O (stereo partly drawn) [6d′] | 48.3 | 20 | – | – | – | –
22 | CCN(CC)CCCC(C)Nc1ccnc2cc(Cl)ccc12 (stereo not drawn) [CQ, chloroquine, reference compound] | – | – | – | – | – | IC50 ([1]; 3D7, read-out: IC50 (SE) µM): 0.03 µM; IC50 ([1]; 3D7, read-out: IC50 (SE) µg/mL): 0.015 µg/mL
23 | CC(C)[C@H](c1nc2ccccc2n1Cc1cn(-c2ccccc2)nn1)N1C(=O)c2ccccc2C1=O [Compound 6k] | 30.9 | 16 | – | – | 221 to 223 | –
24 | CC(C)C[C@H](c1nc2ccccc2n1Cc1cn(-c2ccc(F)cc2)nn1)N1C(=O)c2ccccc2C1=O [Compound 6c] | 17.3 | 8.8 | – | – | – | –
25 | COc1ccc(-n2cc(Cn3c([C@@H](CC(C)C)N4C(=O)c5ccccc5C4=O)nc4ccccc43)nn2)cc1 [Compound 6d] | – | – | NDR | NDR | – | –

Source: publication PMC5532363, “Synergistic blending of high-valued heterocycles inhibits growth of Plasmodium falciparum in culture and P. berghei infection in mouse model” (Scientific Reports, 2017)
